One assay has as its system M. pachydermatis. Conditions: for MMC/MIC Ratio: M. pachydermatis; for MIC Values: broth microdilution, Sabouraud dextrose broth + 1% Tween 80, 48 h, ≥90% inhibition of growth, OD 595 nm; for MMC Values (minimum mycocidal concentration): ≥3 log10 reduction in colony count from starting inoculum, agar 72 h at 30 °C. On the procedure: (§1) MIC of all compounds was determined in Sabouraud Dextrose broth with 1% tween 80 (SB) medium, for M. pachydermatis, and Mueller–Hinton broth (MH), for S. pseudintermedius, by the broth microdilution assay (BMD) in 96-well microtiter plates, as previously reported. Specifically, SB containing 1% Tween 80 was used instead of RPMI 1640 medium. All compounds were dissolved in ethanol and ketoconazole in dimethyl sulfoxide (DMSO). The solutions were serially diluted in SB and MH two-fold from 0.19 to 50 μM. M. pachydermatis suspension was prepared from 3-day-old colonies grown on Sabouraud agar at 30 °C. The final concentration of the yeast inoculum suspensions was equivalent to 1–3 × 10^3 CFU/mL. Bacterial suspensions were diluted to yield an optical density (OD) around 0.5 at 595 nm and further diluted to a final concentration of 1 × 10^6 CFU/mL. The compounds were added to the microbial suspension in each well yielding a final cell concentration of 5 × 10^5 CFU/mL. Positive controls included oxacillin 5 μM (2 μg/mL) and vancomycin 1.4 μM (2 μg/mL) for S. pseudintermedius or ketoconazole 0.2 μM (0.125 μg/mL) for M. pachydermatis. Negative control wells were set to contain bacteria in MH or yeasts in SB plus the amount of ethanol used to dilute each compound. Medium turbidity was measured by a microtiter plate reader (Tecan, Milan, Italy) at 595 nm after 24 h for S. pseudintermedius and 48 h for M. pachydermatis. Absorbance was proportional to microbial growth. The MIC was defined as the lowest concentration of drug that caused a prominent decrease (≥90% inhibition) in visible growth relative to that of the growth control.
A general note: Broth dilution looks for growth in wells or tubes with falling amounts of substance.

The subject of assay [1] is methicillin-resistant S. pseudintermedius (MRSP). The assay is described as follows: microbe, parasite or virus in culture. In kind it is cell-based, Staphylococcus pseudintermedius. As to conditions: Staphylococcus pseudintermedius, 24 h. As for the experimental part:
as §1

The subject of assay [2] is methicillin-susceptible S. pseudintermedius (MSSP). The assay is described as follows: microbe, parasite or virus in culture. As to conditions: Staphylococcus pseudintermedius, 24 h. The assay is classed as cell-based, Staphylococcus pseudintermedius. On the procedure:
as §1

The test system of the next assay is MRSP. In words: Checkerboard synergy of peptide 8 and oxacillin. The assay is classed as cell-based, Staphylococcus pseudintermedius. As for the experimental part:
The interaction between peptide 8 and oxacillin against MRSP was evaluated by the checkerboard method. Briefly, twofold serial dilutions of oxacillin distributed in horizontal rows of 96-well microtiter plate were cross-diluted vertically by twofold serial dilutions of peptide 8 to at least double the MIC. The peptide 8 tested concentration ranging from 0.19 to 12.5 μM and oxacillin from 1.25 to 25 μM (0.5 to 10 μg/mL). Microtiter plates were inoculated with bacteria at an approximate concentration of 10^5 CFU/mL and incubated at 37 °C for 24 h. […] To evaluate the effect of the combination treatment, the fractional inhibitory concentration (FIC) index for each combination was calculated as follows: FIC index = FIC of peptide 8 + FIC of oxacillin, where FIC of peptide 8 (or oxacillin) was defined as the ratio of MIC of peptide 8 (or oxacillin) in combination and MIC of peptide 8 (or oxacillin) alone. The FIC index values were interpreted as follows: ≤0.5, synergistic; >0.5 to ≤1.0, additive; >1.0 to ≤2.0, indifferent; and >2.0, antagonistic effects.

Values after ≈ are worked out from the molar mass of the structure shown. Where two headings read alike, the source gives them in different places. Where a SMILES comes first, the peptide text is derived from it. [ ]: non-standard residue; d: D form. Hyp = O=C(O)[C@@H]1C[C@@H](O)CN1; dHyp = O=C(O)[C@H]1C[C@H](O)CN1; Aic = NC1(C(=O)O)Cc2ccccc2C1; dNle = CCCC[C@@H](N)C(=O)O

For the molecule `CC[C@H](C)[C@H](NC(=O)[C@H](CCCNC(=N)N)NC(=O)[C@H]1CCCN1C(=O)[C@@H](CC(C)C)NC(=O)[C@H](Cc1ccccc1)NC(=O)[C@H](CCCCN)NC(=O)[C@H](CO)NC(=O)[C@H](Cc1ccccc1)NC(=O)[C@H](Cc1c[nH]c2ccccc12)NC(=O)[C@@H]1CCCN1C(=O)[C@@H](NC(=O)[C@@H](N)Cc1ccccc1)C(C)C)C(=O)N[C@@H](CC(C)C)C(N)=O` [Peptide 3] (H-FVPWFSKF[dL][dP]RIL-NH2), in the assay with M. pachydermatis, the “MMC/MIC Ratio” value was 4, the “MIC Values” came out at 25 µM and the “MMC Values (minimum mycocidal concentration)” value (from here on “MMC Values”) worked out at 100 µM.

For the molecule `CC[C@H](C)[C@H](NC(=O)[C@H](CCCNC(=N)N)NC(=O)C1(NC(=O)[C@@H](CC(C)C)NC(=O)[C@H](Cc2ccccc2)NC(=O)[C@H](CCCCN)NC(=O)[C@H](CO)NC(=O)[C@H](Cc2ccccc2)NC(=O)[C@H](Cc2c[nH]c3ccccc23)NC(=O)[C@@H]2CCCN2C(=O)[C@@H](NC(=O)[C@@H](N)Cc2ccccc2)C(C)C)Cc2ccccc2C1)C(=O)N[C@@H](CC(C)C)C(N)=O` [Peptide 11] (H-FVPWFSKF[dL][Aic]RIL-NH2), in the assay on M. pachydermatis, the “MMC/MIC Ratio” value is 4, the “MIC Values” stood at 25 µM and the “MMC Values” value amounted to 100 µM.

For `CN[C@H](CC(C)C)C(=O)N[C@H]1C(=O)N[C@@H](CC(N)=O)C(=O)N[C@H]2C(=O)N[C@H]3C(=O)N[C@H](C(=O)N[C@H](C(=O)O)c4cc(O)cc(O)c4-c4cc3ccc4O)[C@H](O)c3ccc(c(Cl)c3)Oc3cc2cc(c3O[C@@H]2O[C@H](CO)[C@@H](O)[C@H](O)[C@H]2O[C@H]2C[C@](C)(N)[C@H](O)[C@H](C)O2)Oc2ccc(cc2Cl)[C@H]1O` [Vancomycin, vancomycin, reference compound], the MIC in assay [1] and in assay [2] was under 1.4 µM throughout.

On to `CC[C@H](C)[C@H](NC(=O)[C@H](CCCNC(=N)N)NC(=O)[C@H](Cc1c[nH]c2ccccc12)NC(=O)[C@@H](CC(C)C)NC(=O)[C@H](Cc1ccccc1)NC(=O)[C@H](CCCCN)NC(=O)[C@H](CO)NC(=O)[C@H](Cc1ccccc1)NC(=O)[C@H](Cc1c[nH]c2ccccc12)NC(=O)[C@@H]1CCCN1C(=O)[C@@H](NC(=O)[C@@H](N)Cc1ccccc1)C(C)C)C(=O)N[C@@H](CC(C)C)C(N)=O` [Peptide 9] (H-FVPWFSKF[dL]WRIL-NH2), for which, in the assay on M. pachydermatis, the “MMC/MIC Ratio” value was 4, the “MIC Values” amounted to 25 µM and the “MMC Values” value amounted to 100 µM.

As for `CCCC[C@@H](NC(=O)[C@@H](CC(C)C)NC(=O)[C@H](Cc1ccccc1)NC(=O)[C@H](CCCCN)NC(=O)[C@H](CO)NC(=O)[C@H](Cc1ccccc1)NC(=O)[C@H](Cc1c[nH]c2ccccc12)NC(=O)[C@@H]1CCCN1C(=O)[C@@H](NC(=O)[C@@H](N)Cc1ccccc1)C(C)C)C(=O)N[C@@H](CCCNC(=N)N)C(=O)N[C@H](C(=O)N[C@@H](CC(C)C)C(N)=O)[C@@H](C)CC` [Peptide 6] (H-FVPWFSKF[dL][dNle]RIL-NH2; N-terminus assumed), in the assay on M. pachydermatis, the “MMC/MIC Ratio” value was found to be 4, the “MIC Values” was 25 µM and the “MMC Values” value is 100 µM.

As for `Cc1onc(-c2ccccc2)c1C(=O)N[C@@H]1C(=O)N2[C@@H]1SC(C)(C)[C@@H]2C(=O)O` [Oxacillin, oxacillin, reference compound], in the assay with MRSP (MRSP, oxacillin alone versus oxacillin in combination), the “Oxacillin MIC value reduction in combination with peptide 8” value is reported as “about eight”. Also, the “Concentration of oxacillin in the most synergistic combination” value in the assay with MRSP (with 1.56 μM peptide 8, MRSP, 1/8 MIC) is 3.1 µM. The MIC in assay [1] (MRSP, Mueller-Hinton broth, ≥90% inhibition, three independent experiments in triplicate, read-out: MIC) was 25 µM (≈ 10 µg/mL); in assay [2] (MSSP, Mueller-Hinton broth, ≥90% inhibition, three independent experiments in triplicate, read-out: MIC), under 5 µM.

For `CC[C@H](C)[C@H](NC(=O)[C@H](CCCNC(=N)N)NC(=O)[C@@H]1C[C@@H](O)CN1C(=O)[C@@H](CC(C)C)NC(=O)[C@H](Cc1ccccc1)NC(=O)[C@H](CCCCN)NC(=O)[C@H](CO)NC(=O)[C@H](Cc1ccccc1)NC(=O)[C@H](Cc1c[nH]c2ccccc12)NC(=O)[C@@H]1CCCN1C(=O)[C@@H](NC(=O)[C@@H](N)Cc1ccccc1)C(C)C)C(=O)N[C@@H](CC(C)C)C(N)=O` [Peptide 4] (H-FVPWFSKF[dL][Hyp]RIL-NH2), in the assay with M. pachydermatis, the “MMC/MIC Ratio” value is reported as 4, the “MIC Values” is 25 µM and the “MMC Values” value was 100 µM.

As to `CC[C@H](C)[C@H](NC(=O)[C@H](CCCNC(=N)N)NC(=O)[C@@H](Cc1c[nH]c2ccccc12)NC(=O)[C@@H](CC(C)C)NC(=O)[C@H](Cc1ccccc1)NC(=O)[C@H](CCCCN)NC(=O)[C@H](CO)NC(=O)[C@H](Cc1ccccc1)NC(=O)[C@H](Cc1c[nH]c2ccccc12)NC(=O)[C@@H]1CCCN1C(=O)[C@@H](NC(=O)[C@@H](N)Cc1ccccc1)C(C)C)C(=O)N[C@@H](CC(C)C)C(N)=O` [Peptide 10] (H-FVPWFSKF[dL][dW]RIL-NH2), in the assay with M. pachydermatis, the “MMC/MIC Ratio” value worked out at 2, the “MIC Values” was 12.5 µM and the “MMC Values” value is 25 µM.

In the case of `CC[C@H](C)[C@H](NC(=O)[C@H](CCCNC(=N)N)NC(=O)[C@@H]1CCCN1C(=O)[C@@H](CC(C)C)NC(=O)[C@H](Cc1ccccc1)NC(=O)[C@H](CCCCN)NC(=O)[C@H](CO)NC(=O)[C@H](Cc1ccccc1)NC(=O)[C@H](Cc1c[nH]c2ccccc12)NC(=O)[C@@H]1CCCN1C(=O)[C@@H](NC(=O)[C@@H](N)Cc1ccccc1)C(C)C)C(=O)N[C@@H](CC(C)C)C(N)=O` [Peptide 2] (H-FVPWFSKF[dL]PRIL-NH2), in the assay with M. pachydermatis, the “MMC/MIC Ratio” value is listed as 4, the “MIC Values” was found to be 25 µM and the “MMC Values” value turned out to be 100 µM.

In the case of `CC[C@H](C)[C@H](NC(=O)[C@H](CCCNC(=N)N)NC(=O)[C@H]1C[C@H](O)CN1C(=O)[C@@H](CC(C)C)NC(=O)[C@H](Cc1ccccc1)NC(=O)[C@H](CCCCN)NC(=O)[C@H](CO)NC(=O)[C@H](Cc1ccccc1)NC(=O)[C@H](Cc1c[nH]c2ccccc12)NC(=O)[C@@H]1CCCN1C(=O)[C@@H](NC(=O)[C@@H](N)Cc1ccccc1)C(C)C)C(=O)N[C@@H](CC(C)C)C(N)=O` [Peptide 5] (H-FVPWFSKF[dL][dHyp]RIL-NH2), in the assay with M. pachydermatis, the “MMC/MIC Ratio” value is 4 and the “MMC Values” value was determined as 100 µM.

Regarding `CC[C@H](C)[C@H](NC(=O)[C@H](CCCNC(=N)N)NC(=O)CNC(=O)[C@@H](CC(C)C)NC(=O)[C@H](Cc1ccccc1)NC(=O)[C@H](CCCCN)NC(=O)[C@H](CO)NC(=O)[C@H](Cc1ccccc1)NC(=O)[C@H](Cc1c[nH]c2ccccc12)NC(=O)[C@@H]1CCCN1C(=O)[C@@H](NC(=O)[C@@H](N)Cc1ccccc1)C(C)C)C(=O)N[C@@H](CC(C)C)C(N)=O` [Peptide 1] (H-FVPWFSKF[dL]GRIL-NH2), the “MIC Values” with M. pachydermatis worked out at 25 µM.

On to `CC[C@H](C)[C@H](NC(=O)[C@H](CCCNC(=N)N)NC(=O)[C@H](CCCCN)NC(=O)[C@@H](CC(C)C)NC(=O)[C@H](Cc1ccccc1)NC(=O)[C@H](CCCCN)NC(=O)[C@H](CO)NC(=O)[C@H](Cc1ccccc1)NC(=O)[C@H](Cc1c[nH]c2ccccc12)NC(=O)[C@@H]1CCCN1C(=O)[C@@H](NC(=O)[C@@H](N)Cc1ccccc1)C(C)C)C(=O)N[C@@H](CC(C)C)C(N)=O` [Peptide 7] (H-FVPWFSKF[dL]KRIL-NH2; N-terminus assumed), for which, in the assay on M. pachydermatis, the “MMC/MIC Ratio” value worked out at 2, the “MIC Values” was found to be 12.5 µM and the “MMC Values” value was 25 µM.

Source of the values: article PMC7560154, “Novel Antimicrobial Peptide from Temporin L in The Treatment of Staphylococcus pseudintermedius and Malassezia pachydermatis in Polymicrobial Inter-Kingdom Infection” (Antibiotics, 2020).
